Values quoted from earlier work, collected in patent US20250258179A1, “Method for Estimating Meal Component Bioavailability” (The Texas A&M University System, priority 2024, published 2025).

System: critically ill patients
Conditions: recently shown

## CC(C)(O)CC(=O)O [HMB, hydroxy-methylbutyric acid]
  protein breakdown: reduction in protein breakdown
